Assay results: the NIST ThermoML archive (doi:10.1016/j.jct.2016.01.019)
Several values for one entry are separate records, joined by “and”; a condition that tells them apart may be missing. Equal entries are not always repeated.

Experiments:
[1] = refractive index (other wavelength) (dimensionless); details: 94.64 kPa, Liquid, Standard Abbe refractometry
[2] = refractive index (Na D-line) (dimensionless); details: 94.64 kPa, Liquid, Standard Abbe refractometry
[3] = Liquid; for mass density: 94.64 kPa, Vibrating tube method; for vapor or sublimation pressure: Ebulliometric method (Recirculating still)
[4] = xn = mol fraction of the nth substance listed; details: 94.64 kPa, Liquid, Vibrating tube method, x1 = 1

CC(O)CO (stereo unspecified) [1,2-propanediol]
refractive index, [1]
Details | Wavelength=404.7 nm | Wavelength=435.8 nm | Wavelength=486.1 nm | Wavelength=546.1 nm | Wavelength=587.6 nm | Wavelength=632.8 nm | Wavelength=644 nm | Wavelength=706.5 nm
293.15 K | 1.445 | 1.44204 | 1.43722 | 1.43406 | 1.43227 | 1.43023 | 1.43008 | 1.42866
298.15 K | 1.4429 | 1.43967 | 1.43566 | 1.43245 | 1.4305 | 1.429 | 1.4289 | 1.42701
303.15 K | 1.44135 | 1.43785 | 1.43417 | 1.43096 | 1.42927 | 1.42774 | 1.42734 | 1.42571
308.15 K | 1.43955 | 1.43622 | 1.43239 | 1.42919 | 1.42752 | 1.426 | 1.42565 | 1.42397
313.15 K | 1.43771 | 1.43437 | 1.43055 | 1.42738 | 1.42572 | 1.4242 | 1.42386 | 1.42219
318.15 K | 1.43584 | 1.43252 | 1.42875 | 1.42557 | 1.42392 | 1.42243 | 1.42208 | 1.42043

Details | mass density [kg/m3] | refractive index | vapor or sublimation pressure
[2], 293.15 K | – | 1.43219 | –
[2], 298.15 K | – | 1.4303 | –
[2], 303.15 K | – | 1.42921 | –
[2], 308.15 K | – | 1.42746 | –
[2], 313.15 K | – | 1.42566 | –
[2], 318.15 K | – | 1.42386 | –
[3], 293.15 K | 1036.25 | – | –
[3], 298.15 K | 1032.61 | – | –
[3], 303.15 K | 1028.93 | – | –
[3], 308.15 K | 1025.19 | – | –
[3], 313.15 K | 1021.42 | – | –
[3], 318.15 K | 1017.65 | – | –
[3], 389.39 K | – | – | 6.67 kPa
[3], 396.95 K | – | – | 10 kPa
[3], 402.95 K | – | – | 13.33 kPa
[3], 408.6 K | – | – | 16.61 kPa
[3], 412.95 K | – | – | 19.96 kPa
[3], 413.23 K | – | – | 19.99 kPa
[3], 417.15 K | – | – | 23.34 kPa
[3], 421.2 K | – | – | 26.62 kPa
[3], 421.21 K | – | – | 26.66 kPa
[3], 424.5 K | – | – | 30 kPa
[3], 427.16 K | – | – | 33.33 kPa
[3], 427.23 K | – | – | 33.57 kPa
[3], 429.55 K | – | – | 36.61 kPa
[3], 432.05 K | – | – | 40.01 kPa and 39.99 kPa
[3], 433.7 K | – | – | 43.33 kPa
[3], 436.07 K | – | – | 46.66 kPa
[3], 437.77 K | – | – | 50 kPa
[3], 439.74 K | – | – | 53.25 kPa
[3], 441.27 K | – | – | 56.74 kPa
[3], 443.15 K | – | – | 59.99 kPa

CC(O)CO (stereo unspecified) [1,2-propanediol] + OCCCO
[4]
Details | mass density [kg/m3]
293.15 K | 1036.25
298.15 K | 1032.61
303.15 K | 1028.93
308.15 K | 1025.19
313.15 K | 1021.42
318.15 K | 1017.65
